Measured values reported in patent US12077503B2, “Substituted cyclic amides and their use as herbicides” (FMC CORPORATION, priority 2015, dated 2024).

Tests used:
Assay in all cases: Test C preemergence
Assay type in all cases: in vivo
Conditions in all cases: scale 0 to 100, 0 no effect, 100 complete control
[1] = system: velvetleaf (Abutilon theophrasti)
How it was run: (§1)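 Greenhouse test: seeds in a loam and sand blend treated preemergence, or seedlings at the 1- to 4-leaf stage (2 to 18 cm) in a peat, vermiculite and limestone mix treated postemergence, with test chemicals in a surfactant-containing non-phytotoxic solvent. Scored by eye at 13 to 15 d relative to controls, 0 (no effect) to 100 (complete control).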

[2] = system: ryegrass, Italian (Italian ryegrass, Lolium multiflorum)
How it was run: as §1

[3] = system: barnyardgrass (Echinochloa crus-galli)
How it was run: as §1

soybean (Glycine max) = system: soybean (Glycine max)
How it was run: as §1

[4] = system: nutsedge, yellow (yellow nutsedge, Cyperus esculentus)
How it was run: as §1

[5] = system: wheat (winter wheat, Triticum aestivum)
How it was run: as §1

[6] = system: waterhemp (common waterhemp, Amaranthus rudis)
How it was run: as §1

[7] = system: oilseed rape (Brassica napus)
How it was run: as §1

[8] = system: blackgrass (Alopecurus myosuroides)
How it was run: as §1

corn (Zea mays) = system: corn (Zea mays)
How it was run: as §1

[9] = system: morningglory (Ipomoea coccinea)
How it was run: as §1

[10] = system: Galium (catchweed bedstraw, Galium aparine)
How it was run: as §1

[11] = system: crabgrass, large (large crabgrass, Digitaria sanguinalis)
How it was run: as §1

[12] = system: johnsongrass (Sorghum halepense)
How it was run: as §1

[13] = system: pigweed (Amaranthus retroflexus)
How it was run: as §1

[14] = system: ragweed (common ragweed, Ambrosia elatior)
How it was run: as §1

[15] = system: foxtail, giant (giant foxtail, Setaria faberii)
How it was run: as §1

Cc1ccc(C2CN(C)C(=O)C2C(=O)Nc2cccc(F)c2F)cc1F (stereo not shown) [Compound 464]
Plant response rating, Velvetleaf ([1]; 62 g ai/ha): 30 | Plant response rating, Velvetleaf ([1]; 125 g ai/ha): 45 | Plant response rating, Velvetleaf ([1]; 250 g ai/ha): 60 | Plant response rating, Ryegrass, Italian ([2]; 62 g ai/ha): 55 | Plant response rating, Ryegrass, Italian ([2]; 125 g ai/ha): 70 | Plant response rating, Ryegrass, Italian ([2]; 250 g ai/ha): 85 | Plant response rating, Barnyardgrass ([3]; 31 g ai/ha): 90 | Plant response rating, Barnyardgrass ([3]; 62 g ai/ha): 95 | Plant response rating, Barnyardgrass ([3]; 125 g ai/ha): 95 | Plant response rating, Barnyardgrass ([3]; 250 g ai/ha): 98 | Plant response rating, Soybean (soybean (Glycine max); 62 g ai/ha): 0 | Plant response rating, Soybean (soybean (Glycine max); 125 g ai/ha): 0 | Plant response rating, Soybean (soybean (Glycine max); 250 g ai/ha): 0 | Plant response rating, Nutsedge, Yellow ([4]; 31 g ai/ha): 0 | Plant response rating, Nutsedge, Yellow ([4]; 62 g ai/ha): 0 | Plant response rating, Nutsedge, Yellow ([4]; 125 g ai/ha): 0 | Plant response rating, Nutsedge, Yellow ([4]; 250 g ai/ha): 0 | Plant response rating, Wheat ([5]; 62 g ai/ha): 50 | Plant response rating, Wheat ([5]; 125 g ai/ha): 70 | Plant response rating, Wheat ([5]; 250 g ai/ha): 90 | Plant response rating, Waterhemp ([6]; 62 g ai/ha): 75 | Plant response rating, Waterhemp ([6]; 125 g ai/ha): 80 | Plant response rating, Waterhemp ([6]; 250 g ai/ha): 95 | Plant response rating, Oilseed Rape ([7]; 31 g ai/ha): 80 | Plant response rating, Oilseed Rape ([7]; 62 g ai/ha): 85 | Plant response rating, Oilseed Rape ([7]; 125 g ai/ha): 80 | Plant response rating, Oilseed Rape ([7]; 250 g ai/ha): 90 | Plant response rating, Blackgrass ([8]; 31 g ai/ha): 80 | Plant response rating, Blackgrass ([8]; 62 g ai/ha): 85 | Plant response rating, Blackgrass ([8]; 125 g ai/ha): 85 | Plant response rating, Blackgrass ([8]; 250 g ai/ha): 85 | Plant response rating, Corn (corn (Zea mays); 31 g ai/ha): 50 | Plant response rating, Corn (corn (Zea mays); 62 g ai/ha): 70 | Plant response rating, Corn (corn (Zea mays); 125 g ai/ha): 75 | Plant response rating, Corn (corn (Zea mays); 250 g ai/ha): 90 | Plant response rating, Morningglory ([9]; 31 g ai/ha): 10 | Plant response rating, Morningglory ([9]; 62 g ai/ha): 20 | Plant response rating, Morningglory ([9]; 125 g ai/ha): 20 | Plant response rating, Morningglory ([9]; 250 g ai/ha): 40 | Plant response rating, Galium ([10]; 31 g ai/ha): 90 | Plant response rating, Galium ([10]; 62 g ai/ha): 95 | Plant response rating, Galium ([10]; 125 g ai/ha): 95 | Plant response rating, Galium ([10]; 250 g ai/ha): 95 | Plant response rating, Crabgrass, Large ([11]; 31 g ai/ha): 95 | Plant response rating, Crabgrass, Large ([11]; 62 g ai/ha): 100 | Plant response rating, Crabgrass, Large ([11]; 125 g ai/ha): 100 | Plant response rating, Crabgrass, Large ([11]; 250 g ai/ha): 100 | Plant response rating, Johnsongrass ([12]; 31 g ai/ha): 35 | Plant response rating, Johnsongrass ([12]; 62 g ai/ha): 80 | Plant response rating, Johnsongrass ([12]; 125 g ai/ha): 85 | Plant response rating, Johnsongrass ([12]; 250 g ai/ha): 95 | Plant response rating, Pigweed ([13]; 31 g ai/ha): 45 | Plant response rating, Pigweed ([13]; 62 g ai/ha): 45 | Plant response rating, Pigweed ([13]; 125 g ai/ha): 60 | Plant response rating, Pigweed ([13]; 250 g ai/ha): 70 | Plant response rating, Ragweed ([14]; 31 g ai/ha): 70 | Plant response rating, Ragweed ([14]; 62 g ai/ha): 70 | Plant response rating, Ragweed ([14]; 125 g ai/ha): 75 | Plant response rating, Ragweed ([14]; 250 g ai/ha): 90

CN1CC(c2cccc(C(F)(F)F)c2)C(C)(C(=O)Nc2ccccc2F)C1=O (stereo not shown) [Compound 428]
Plant response rating, Velvetleaf ([1]; 62 g ai/ha): 0 | Plant response rating, Velvetleaf ([1]; 125 g ai/ha): 0 | Plant response rating, Velvetleaf ([1]; 250 g ai/ha): 10 | Plant response rating, Foxtail, Giant ([15]; 31 g ai/ha): 85 | Plant response rating, Foxtail, Giant ([15]; 62 g ai/ha): 90 | Plant response rating, Foxtail, Giant ([15]; 125 g ai/ha): 90 | Plant response rating, Foxtail, Giant ([15]; 250 g ai/ha): 95 | Plant response rating, Ryegrass, Italian ([2]; 62 g ai/ha): 40 | Plant response rating, Ryegrass, Italian ([2]; 125 g ai/ha): 40 | Plant response rating, Ryegrass, Italian ([2]; 250 g ai/ha): 45 | Plant response rating, Barnyardgrass ([3]; 31 g ai/ha): 90 | Plant response rating, Barnyardgrass ([3]; 62 g ai/ha): 95 | Plant response rating, Barnyardgrass ([3]; 125 g ai/ha): 95 | Plant response rating, Barnyardgrass ([3]; 250 g ai/ha): 98 | Plant response rating, Soybean (soybean (Glycine max); 62 g ai/ha): 0 | Plant response rating, Soybean (soybean (Glycine max); 125 g ai/ha): 0 | Plant response rating, Soybean (soybean (Glycine max); 250 g ai/ha): 15 | Plant response rating, Nutsedge, Yellow ([4]; 31 g ai/ha): 0 | Plant response rating, Nutsedge, Yellow ([4]; 62 g ai/ha): 0 | Plant response rating, Nutsedge, Yellow ([4]; 125 g ai/ha): 0 | Plant response rating, Nutsedge, Yellow ([4]; 250 g ai/ha): 30 | Plant response rating, Wheat ([5]; 62 g ai/ha): 15 | Plant response rating, Wheat ([5]; 125 g ai/ha): 50 | Plant response rating, Wheat ([5]; 250 g ai/ha): 80 | Plant response rating, Waterhemp ([6]; 62 g ai/ha): 0 | Plant response rating, Waterhemp ([6]; 125 g ai/ha): 10 | Plant response rating, Waterhemp ([6]; 250 g ai/ha): 35 | Plant response rating, Oilseed Rape ([7]; 31 g ai/ha): 0 | Plant response rating, Oilseed Rape ([7]; 62 g ai/ha): 0 | Plant response rating, Oilseed Rape ([7]; 125 g ai/ha): 0 | Plant response rating, Oilseed Rape ([7]; 250 g ai/ha): 15 | Plant response rating, Blackgrass ([8]; 31 g ai/ha): 0 | Plant response rating, Blackgrass ([8]; 62 g ai/ha): 0 | Plant response rating, Blackgrass ([8]; 125 g ai/ha): 30 | Plant response rating, Blackgrass ([8]; 250 g ai/ha): 30 | Plant response rating, Corn (corn (Zea mays); 31 g ai/ha): 15 | Plant response rating, Corn (corn (Zea mays); 62 g ai/ha): 25 | Plant response rating, Corn (corn (Zea mays); 125 g ai/ha): 55 | Plant response rating, Corn (corn (Zea mays); 250 g ai/ha): 70 | Plant response rating, Morningglory ([9]; 31 g ai/ha): 0 | Plant response rating, Morningglory ([9]; 62 g ai/ha): 0 | Plant response rating, Morningglory ([9]; 125 g ai/ha): 0 | Plant response rating, Morningglory ([9]; 250 g ai/ha): 0 | Plant response rating, Crabgrass, Large ([11]; 31 g ai/ha): 90 | Plant response rating, Crabgrass, Large ([11]; 62 g ai/ha): 95 | Plant response rating, Crabgrass, Large ([11]; 125 g ai/ha): 98 | Plant response rating, Crabgrass, Large ([11]; 250 g ai/ha): 98 | Plant response rating, Johnsongrass ([12]; 31 g ai/ha): 5 | Plant response rating, Johnsongrass ([12]; 62 g ai/ha): 50 | Plant response rating, Johnsongrass ([12]; 125 g ai/ha): 65 | Plant response rating, Johnsongrass ([12]; 250 g ai/ha): 75 | Plant response rating, Pigweed ([13]; 31 g ai/ha): 10 | Plant response rating, Pigweed ([13]; 62 g ai/ha): 0 | Plant response rating, Pigweed ([13]; 125 g ai/ha): 0 | Plant response rating, Pigweed ([13]; 250 g ai/ha): 40 | Plant response rating, Ragweed ([14]; 31 g ai/ha): 0 | Plant response rating, Ragweed ([14]; 62 g ai/ha): 0 | Plant response rating, Ragweed ([14]; 125 g ai/ha): 0 | Plant response rating, Ragweed ([14]; 250 g ai/ha): 0
